Measurements: the supplement of paper PMC6045584
± gives the standard deviation of the averaged measurements.

Assays:
[1] = compound: Cc1nc(Nc2n[nH]c3c2CN(C(=O)N[C@H](CN(C)C)c2ccccc2)C3(C)C)c2sccc2n1; test: surviving fraction relative to DMSO-only wells; higher = less growth inhibition; conditions: exposure time: 5 days
Summary of the method: (§1)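 Tumour cell lines were seeded in log phase at 250–500 cells per well into 384-well plates. Starting 24 hours later, inhibitors were present continuously for five days at 0.5, 1, 5, 10, 50, 100, 500 and 1000 nM. Surviving fraction, from CellTiter-Glo luminescence, is normalised to the median of DMSO-only wells. Three screens per line were required, with replicate Pearson r >0.7 and median Z' >0.3 for a line to be kept.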

PLX-4720 = compound: CCCS(=O)(=O)Nc1ccc(F)c(C(=O)c2c[nH]c3ncc(Cl)cc23)c1F [PLX-4720]; test: as above; conditions: exposure time: 5 days
Summary of the method: as §1

Test System | surviving fraction ([1]; 0.5 nM) | surviving fraction ([1]; 1 nM) | surviving fraction ([1]; 5 nM) | surviving fraction ([1]; 10 nM) | surviving fraction ([1]; 50 nM) | surviving fraction ([1]; 100 nM) | surviving fraction ([1]; 500 nM) | surviving fraction ([1]; 1000 nM) | surviving fraction (PLX-4720; 0.5 nM) | surviving fraction (PLX-4720; 1 nM) | surviving fraction (PLX-4720; 5 nM) | surviving fraction (PLX-4720; 10 nM) | surviving fraction (PLX-4720; 50 nM) | surviving fraction (PLX-4720; 100 nM) | surviving fraction (PLX-4720; 500 nM) | surviving fraction (PLX-4720; 1000 nM)
OSHN BONE | 1.06 ± 0.037 | 1.01 ± 0.019 | 0.4963 ± 0.004 | 0.361 ± 0.026 | 0.31 ± 0.017 | 0.347 ± 0.031 | 0.366 ± 0.015 | 0.279 ± 0.018 | 0.859 ± 0.011 | 0.882 ± 0.017 | 0.89 ± 0.025 | 0.904 ± 0.018 | 0.944 ± 0.035 | 0.9783 ± 0.0029 | 0.978 ± 0.019 | 0.975 ± 0.016
PCI30 HEADNECK | 0.882 ± 0.021 | 0.823 ± 0.028 | 0.579 ± 0.015 | 0.599 ± 0.038 | 0.538 ± 0.022 | 0.514 ± 0.024 | 0.344 ± 0.014 | 0.0833 ± 0.019 | 1.03 ± 0.057 | 0.987 ± 0.0079 | 1.01 ± 0.032 | 1.06 ± 0.011 | 1 ± 0.024 | 1.07 ± 0.082 | 0.938 ± 0.087 | 0.959 ± 0.07
RDES SOFT TISSUE | 0.764 ± 0.075 | 0.577 ± 0.1 | 1.16 ± 0.32 | 1.02 ± 0.14 | 0.756 ± 0.037 | 0.763 ± 0.1 | 0.525 ± 0.044 | 0.503 ± 0.094 | 0.795 ± 0.13 | 0.683 ± 0.12 | 0.7 ± 0.079 | 0.747 ± 0.058 | 1.04 ± 0.11 | 0.989 ± 0.25 | 0.994 ± 0.054 | 0.793 ± 0.13
S68 BREAST | 1.04 ± 0.21 | 0.77 ± 0.013 | 0.481 ± 0.066 | 0.321 ± 0.04 | 0.288 ± 0.081 | 0.318 ± 0.0098 | 0.25 ± 0.014 | 0.234 ± 0.017 | 0.773 ± 0.17 | 0.685 ± 0.22 | 0.775 ± 0.18 | 0.778 ± 0.19 | 1 ± 0.31 | 1.06 ± 0.12 | 1.09 ± 0.16 | 0.962 ± 0.15
SAOS2 BONE | 0.797 ± 0.0017 | 0.645 ± 0.062 | 0.509 ± 0.016 | 0.4777 ± 0.004 | 0.42 ± 0.019 | 0.376 ± 0.025 | 0.12 ± 0.018 | 0.034 ± 0.0017 | 0.824 ± 0.019 | 0.866 ± 0.013 | 0.891 ± 0.0052 | 0.831 ± 0.049 | 1.08 ± 0.038 | 1.12 ± 0.077 | 1.108 ± 0.0092 | 1.13 ± 0.095
SCC36 HEADNECK | 0.862 ± 0.084 | 0.681 ± 0.052 | 0.258 ± 0.011 | 0.188 ± 0.019 | 0.152 ± 0.011 | 0.164 ± 0.029 | 0.101 ± 0.0062 | 0.106 ± 0.0084 | 0.761 ± 0.06 | 0.694 ± 0.059 | 0.803 ± 0.036 | 0.76 ± 0.028 | 0.97 ± 0.058 | 0.983 ± 0.017 | 0.974 ± 0.13 | 0.958 ± 0.067
SCC47 HEADNECK | 1.06 ± 0.018 | 1.08 ± 0.033 | 0.815 ± 0.029 | 0.664 ± 0.074 | 0.47 ± 0.018 | 0.432 ± 0.044 | 0.292 ± 0.03 | 0.135 ± 0.023 | 0.871 ± 0.025 | 0.853 ± 0.017 | 0.953 ± 0.041 | 0.884 ± 0.016 | 0.981 ± 0.03 | 1.09 ± 0.03 | 0.999 ± 0.14 | 1.01 ± 0.051
SCC90 HEADNECK | 0.981 ± 0.092 | 0.893 ± 0.19 | 0.516 ± 0.016 | 0.523 ± 0.027 | 0.488 ± 0.04 | 0.467 ± 0.028 | 0.185 ± 0.016 | 0.177 ± 0.034 | 0.874 ± 0.13 | 0.819 ± 0.034 | 0.955 ± 0.011 | 0.965 ± 0.17 | 1.18 ± 0.12 | 1.25 ± 0.077 | 0.64 ± 0.1 | 0.539 ± 0.053
SG27 HEADNECK | 0.936 ± 0.024 | 0.931 ± 0.029 | 0.64 ± 0.069 | 0.612 ± 0.066 | 0.408 ± 0.069 | 0.373 ± 0.053 | 0.199 ± 0.046 | 0.115 ± 0.01 | 0.659 ± 0.094 | 0.877 ± 0.1 | 0.962 ± 0.077 | 0.965 ± 0.12 | 0.788 ± 0.12 | 0.942 ± 0.11 | 0.928 ± 0.1 | 0.955 ± 0.1
SG28 HEADNECK | 0.97 ± 0.064 | 1 ± 0.056 | 0.818 ± 0.009 | 0.716 ± 0.039 | 0.667 ± 0.051 | 0.523 ± 0.063 | 0.186 ± 0.0036 | 0.049 ± 0.0053 | 0.279 ± 0.033 | 0.796 ± 0.12 | 0.718 ± 0.057 | 0.849 ± 0.082 | 0.513 ± 0.014 | 0.964 ± 0.027 | 0.818 ± 0.11 | 0.959 ± 0.036
SG31 HEADNECK | 0.947 ± 0.073 | 1.01 ± 0.088 | 0.671 ± 0.076 | 0.909 ± 0.17 | 0.456 ± 0.0092 | 0.609 ± 0.067 | 0.241 ± 0.024 | 0.344 ± 0.033 | 0.492 ± 0.037 | 0.775 ± 0.056 | 0.765 ± 0.053 | 0.96 ± 0.18 | 0.642 ± 0.068 | 0.843 ± 0.048 | 0.963 ± 0.025 | 1.06 ± 0.12
SG32 HEADNECK | 1.04 ± 0.29 | 0.756 ± 0.027 | 0.363 ± 0.013 | 0.247 ± 0.017 | 0.206 ± 0.014 | 0.148 ± 0.021 | 0.0707 ± 0.012 | 0.041 ± 0.011 | 0.341 ± 0.11 | 0.617 ± 0.029 | 0.494 ± 0.06 | 0.742 ± 0.094 | 0.366 ± 0.042 | 0.804 ± 0.079 | 0.623 ± 0.16 | 0.821 ± 0.035
SG43 HEADNECK | 1.23 ± 0.11 | 1.11 ± 0.22 | 0.921 ± 0.13 | 0.784 ± 0.34 | 1.14 ± 0.2 | 0.959 ± 0.16 | 0.971 ± 0.055 | 1.35 ± 0.2 | 1.26 ± 0.34 | 1.19 ± 0.013 | 1.09 ± 0.053 | 1 ± 0.1 | 1.13 ± 0.13 | 1.27 ± 0.15 | 1.65 ± 0.22 | 1.7 ± 0.078
SIHA CERVIX | 0.827 ± 0.039 | 0.689 ± 0.052 | 0.555 ± 0.023 | 0.487 ± 0.026 | 0.419 ± 0.0098 | 0.391 ± 0.0081 | 0.262 ± 0.031 | 0.146 ± 0.017 | 0.908 ± 0.016 | 0.877 ± 0.034 | 0.909 ± 0.041 | 0.995 ± 0.034 | 0.993 ± 0.022 | 1.07 ± 0.068 | 1.06 ± 0.041 | 1.09 ± 0.055
SJSA1 BONE | 0.972 ± 0.02 | 0.901 ± 0.011 | 0.747 ± 0.018 | 0.696 ± 0.057 | 0.448 ± 0.015 | 0.393 ± 0.025 | 0.289 ± 0.007 | 0.243 ± 0.0072 | 0.89 ± 0.025 | 0.914 ± 0.026 | 0.904 ± 0.028 | 0.948 ± 0.025 | 1.03 ± 0.033 | 1.03 ± 0.062 | 0.998 ± 0.059 | 0.955 ± 0.074
SKBR3 BREAST | 0.895 ± 0.11 | 0.834 ± 0.079 | 0.49 ± 0.027 | 0.498 ± 0.026 | 0.454 ± 0.063 | 0.419 ± 0.045 | 0.344 ± 0.021 | 0.1 ± 0.011 | 0.838 ± 0.027 | 0.81 ± 0.098 | 0.819 ± 0.14 | 0.813 ± 0.15 | 1.05 ± 0.12 | 1.01 ± 0.15 | 0.986 ± 0.17 | 0.892 ± 0.14
SNU475 LIVER | 0.974 ± 0.027 | 0.918 ± 0.067 | 0.724 ± 0.06 | 0.633 ± 0.032 | 0.509 ± 0.0096 | 0.467 ± 0.024 | 0.393 ± 0.015 | 0.244 ± 0.015 | 0.358 ± 0.028 | 0.806 ± 0.029 | 0.674 ± 0.01 | 0.808 ± 0.02 | 0.392 ± 0.029 | 0.919 ± 0.021 | 0.839 ± 0.024 | 1 ± 0.055
SUM44 BREAST | 1.08 ± 0.03 | 1.05 ± 0.065 | 1 ± 0.039 | 0.972 ± 0.041 | 0.983 ± 0.059 | 0.929 ± 0.038 | 0.735 ± 0.023 | 0.541 ± 0.023 | 0.9 ± 0.025 | 0.868 ± 0.058 | 0.932 ± 0.011 | 0.969 ± 0.022 | 1.07 ± 0.072 | 1.02 ± 0.052 | 0.946 ± 0.045 | 0.92 ± 0.03
SUM149 BREAST | 0.863 ± 0.011 | 1.01 ± 0.02 | 0.178 ± 0.014 | 0.365 ± 0.037 | 0.124 ± 0.0069 | 0.145 ± 0.011 | 0.0783 ± 0.0083 | 0.117 ± 0.013 |  |  |  | 0.827 ± 0.063 | 0.289 ± 0.02 | 0.991 ± 0.094 | 0.821 ± 0.05 | 0.919 ± 0.011
SUM149.B1*.S BREAST | 1.05 ± 0.021 | 1.04 ± 0.013 | 0.473 ± 0.02 | 0.817 ± 0.017 | 0.279 ± 0.032 | 0.748 ± 0.032 | 0.24 ± 0.0095 | 0.691 ± 0.046 | 0.392 ± 0.028 | 0.793 ± 0.046 | 0.787 ± 0.036 | 0.8912 ± 0.0055 | 0.517 ± 0.056 | 0.968 ± 0.042 | 0.863 ± 0.038 | 1.02 ± 0.015
SUM159 BREAST | 1.13 ± 0.2 | 1.15 ± 0.2 | 1.15 ± 0.21 | 1.1 ± 0.18 | 0.554 ± 0.027 | 0.407 ± 0.026 | 0.369 ± 0.028 | 0.292 ± 0.0093 | 1.04 ± 0.28 | 1.08 ± 0.28 | 1.04 ± 0.21 | 1.08 ± 0.23 | 1.08 ± 0.25 | 1.1 ± 0.26 | 1.1 ± 0.24 | 1.11 ± 0.21
